Measured values reported in the CheMixHub viscosity set.

Assay: xn = mol fraction of the nth substance listed

COc1ccc(C=O)cc1 + Cc1cccc(O)c1
Settings | viscosity [mPa·s]
318.15 K, 101 kPa, x1 = 0.4656 | 4.085

CCCCCCCCCCCCCCCCCCCl + CCCCC
298 K, 101.3 kPa
Settings | viscosity [mPa·s]
x2 = 0.1054 | 6.009
x2 = 0.2014 | 4.945
x2 = 0.3067 | 3.902
x2 = 0.4166 | 2.952
x2 = 0.4993 | 2.325
x2 = 0.6122 | 1.613
x2 = 0.7054 | 1.157
x2 = 0.8048 | 0.7477
x2 = 0.9029 | 0.431

OCC(O)CO + CN(C)C=O
viscosity [mPa·s], 101 kPa
Settings | x1 = 0.105 | x1 = 0.209 | x1 = 0.312 | x1 = 0.414 | x1 = 0.514 | x1 = 0.613 | x1 = 0.712 | x1 = 0.809 | x1 = 0.905
303.15 K | 1.5 | 2.41 | 4.22 | 7.36 | 14.2 | 19.9 | 64.6 | 127.5 | 258.7
318.15 K | 1.24 | 1.84 | 2.91 | 4.77 | 8.35 | – | 27.3 | 50.5 | 91.1

CCOc1ccccc1 + CCCCCCO
viscosity [mPa·s], 101.3 kPa
Settings | x1 = 0.1009 | x1 = 0.1998 | x1 = 0.2997 | x1 = 0.3996 | x1 = 0.5031 | x1 = 0.6005 | x1 = 0.7003 | x1 = 0.8012 | x1 = 0.9001
293.15 K | 4.148 | 3.239 | 2.559 | 2.075 | 1.745 | 1.557 | 1.458 | 1.407 | 1.38
298.15 K | 3.444 | 2.764 | 2.253 | 1.872 | 1.586 | 1.392 | 1.293 | 1.246 | 1.237
308.15 K | 2.831 | 2.252 | 1.807 | 1.482 | 1.248 | 1.103 | 1.033 | 1.001 | 0.9927
318.15 K | 2.142 | 1.72 | 1.388 | 1.153 | 0.9975 | 0.9133 | 0.8619 | 0.8367 | 0.8214

Nc1cc[nH]c(=O)n1 + O
viscosity [mPa·s], 101.3 kPa
Settings | x1 = 0.000131 | x1 = 0.0001895 | x1 = 0.0002822 | x1 = 0.000457 | x1 = 0.0004889 | x1 = 0.0005591
298.15 K | 0.892 | 0.893 | 0.894 | 0.895 | 0.896 | 0.897
308.15 K | 0.721 | 0.722 | 0.722 | 0.724 | 0.724 | 0.725
318.15 K | 0.598 | 0.598 | 0.599 | 0.601 | 0.601 | 0.602

COC(=O)CC(C)=O + CCCCO
viscosity [mPa·s], 101.33 kPa
Settings | x1 = 0.1022 | x1 = 0.2039 | x1 = 0.306 | x1 = 0.4081 | x1 = 0.511 | x1 = 0.6074 | x1 = 0.7044 | x1 = 0.8051 | x1 = 0.9038
298.15 K | 1.886 | 1.628 | 1.465 | 1.378 | 1.328 | 1.311 | 1.321 | 1.368 | 1.436
303.15 K | 1.669 | 1.447 | 1.308 | 1.235 | 1.197 | 1.183 | 1.197 | 1.211 | 1.302
308.15 K | 1.487 | 1.301 | 1.195 | 1.118 | 1.09 | 1.08 | 1.093 | 1.131 | 1.19

FC(F)(F)C(F)(F)Cl + CC(F)F
Settings | viscosity [mPa·s]
299.88 K, 101.13 kPa, x1 = 0.69 | 0.1856

COC(=O)CC(C)=O + CO
viscosity [mPa·s], 101.3 kPa
Settings | x1 = 0.1017 | x1 = 0.1887 | x1 = 0.3013 | x1 = 0.4048 | x1 = 0.5038 | x1 = 0.6056 | x1 = 0.7015 | x1 = 0.8024 | x1 = 0.8994
298.15 K | 0.599 | 0.662 | 0.757 | 0.858 | 0.954 | 1.064 | 1.163 | 1.288 | 1.413
303.15 K | 0.563 | 0.618 | 0.704 | 0.793 | 0.879 | 0.978 | 1.066 | 1.176 | 1.288
308.15 K | 0.525 | 0.578 | 0.657 | 0.737 | 0.815 | 0.902 | 0.984 | 1.082 | 1.18

COC(=O)CC(C)=O + COC(=O)c1ccccc1
viscosity [mPa·s], 101.33 kPa
Settings | x1 = 0.0981 | x1 = 0.1935 | x1 = 0.2966 | x1 = 0.4001 | x1 = 0.4987 | x1 = 0.5986 | x1 = 0.6984 | x1 = 0.798 | x1 = 0.8977
298.15 K | 1.775 | 1.732 | 1.703 | 1.667 | 1.639 | 1.615 | 1.598 | 1.583 | 1.569
303.15 K | 1.609 | 1.573 | 1.548 | 1.515 | 1.49 | 1.469 | 1.453 | 1.44 | 1.429
308.15 K | 1.467 | 1.435 | 1.413 | 1.382 | 1.362 | 1.343 | 1.329 | 1.316 | 1.306

CCOc1ccccc1 + CN1CCCC1=O
viscosity [mPa·s], 101.33 kPa
Settings | x1 = 0.041 | x1 = 0.122 | x1 = 0.201 | x1 = 0.273 | x1 = 0.37 | x1 = 0.504 | x1 = 0.628 | x1 = 0.709 | x1 = 0.822
298 K | 1.667 | 1.648 | 1.622 | 1.594 | 1.551 | 1.481 | 1.408 | 1.36 | 1.285
303 K | 1.541 | 1.518 | 1.49 | 1.461 | 1.418 | 1.353 | 1.286 | 1.242 | 1.175
308 K | 1.432 | 1.406 | 1.377 | 1.348 | 1.307 | 1.244 | 1.183 | 1.141 | 1.08

CCCCCCC(=O)O + ClC(Cl)(Cl)Cl
298.15 K, 101 kPa
Settings | viscosity [mPa·s]
x1 = 0.06 | 0.99
x1 = 0.12 | 1.08
x1 = 0.17 | 1.175
x1 = 0.23 | 1.271
x1 = 0.44 | 1.767
x1 = 0.54 | 2.046
x1 = 0.64 | 2.362
x1 = 0.83 | 3.015

CCOc1ccccc1 + c1ccccc1
viscosity [mPa·s], 101.33 kPa
Settings | 298.15 K | 323.15 K
x1 = 0.2 | 0.68 | 0.49
x1 = 0.5 | 0.823 | 0.576
